Laboratory results from patent EP4458352A1, “EICOSAPENTAENOIC ACID ESTER DERIVATIVES FOR THE TREATMENT OF OBESITY” (Technische Universität Dresden, priority 2023, dated 2024).

Columns and labels:
[1] = tested on: adrenal cortex; assay: RNA-Seq and GSEA of the adrenal cortex of HFD mice with or without icosapent ethyl; format: in vivo, WT C57BL/6J mice; settings: HFD with icosapent ethyl versus HFD without; n=4 mice per group
Description: Six weeks-old male WT C57BL/6J mice were fed for 20 weeks a LFD (D12450B, Research Diets, NJ, USA) or a HFD (D12492, Research Diets, NJ, USA). In some experiments, WT C57BL/6J mice were fed for 8 weeks a HFD and for another 8 weeks a HFD supplemented with SC-26196 (Biorbyt Ltd). SC-26196 was mixed in the HFD at a concentration of 625 mg/kg of diet corresponding to approx. 100 mg/kg of animal weight. In other experiments WT mice were fed for 10 weeks a HFD and for another 10 weeks a HFD supplemented with icosapent ethyl (Vascepa). […]
For transcriptome mapping, strand-specific paired-end sequencing libraries from total RNA were constructed using TruSeq stranded Total RNA kit (Illumina Inc). […] Low quality nucleotides were removed with the Illumina fastq filter and reads were further subjected to adaptor trimming using cutadapt (85). Alignment of the reads to the Mouse genome was done using STAR Aligner (86) using the parameters: "-runMode alignReads -outSAMstrandField intronMotif-outSAMtype BAM SortedByCoordinate-readFilesCommand zcat". […] The parameters: `htseq-count -f bam -s reverse -m union -a 20', HTSeq-0.6.1p1 (87) were used to count the reads that map to the genes in the aligned sample files. The GTF file (gencode.vM12.annotation.gtf) used for read quantification was downloaded from Gencode (https://www.gencodegenes.org/mouse/release_M12.html). […]

[2] = tested on: primary adrenal cell cultures; assay: Steroid hormone production (LC-MS/MS) in primary adrenal cell cultures treated with SC-26196, with or without ACTH or ARA; format: cell-based, WT C57BL/6J mice
Description: Adrenal glands or adrenal corteces were isolated from WT C57BL/6J mice, cleaned from the surrounding fat tissue and incubated in collagenase buffer (1.6 mg/ml collagenase type I, 1.6 mg/ml BSA) for 45 min at 37 °C, while shaking at 900 rpm. Dissociated cells were passed through 22 G needle and a 100 µm cell strainer and centrifuged at 300 × g for 5 min at 4 °C. Cells of a pool from two adrenals of each mouse were distributed in four 0.2 % gelatin-precoated wells of a 96-well plate in DMEM/F12 supplemented with 1 % FBS, 50 U/mL penicillin and 50 µg/mL streptomycin. Two hours after seeding 10 µM SC-26196 (Tocris, Wiesbaden-Nordenstadt, Germany) or same amount of carrier (DMSO) were added without changing the medium. In some experiments medium was additionally supplemented with 150 µM ARA (Sigma Aldrich, Germany) or same amount of solvent (endotoxin-free water). When induction of steroidogenesis was required, the medium was changed 18 h after treatment and the cells were incubated with or without 10 ng/mL ACTH for 60 min in the presence of either 10 µM SC-26196 or DMSO. Supernatants were kept for steroid hormone measurement and cell lysates were collected for transcriptional analysis. In some experiments, primary CD31-CD45- adrenocortical cells were treated or not for 18 h with 66 µM EPA (Sigma-Aldrich). Steroid hormones in plasma and cell culture supernatants were analyzed by LC-MS/MS as previously described (71). Fifty to hundred µL plasma or cell culture supernatants were extracted by solid phase extraction using positive pressure, followed by a dry-down under gentle stream of nitrogen. Residues were reconstituted in 100 µL of the initial LC mobile phase and 10 µL were injected for detection by the triple quadrupole mass spectrometer in multiple reaction-monitoring scan mode using positive electrospray ionization. Quantification of steroid concentrations was done by comparisons of ratios of analyte peak areas to respective peak areas of stable isotope labeled internal standards obtained in samples to those of calibrators.

[3] = ARA 150 µM with SC-26196 10 µM, 18 h, n=6-8

SMILES	genes being down-regulated in the adrenal cortex (RNA-Seq) [1]	genes being up-regulated in the adrenal cortex (RNA-Seq) [1]	11-deoxycorticosterone production in cells treated with SC-26196 [2, 3]	corticosterone production in cells treated with SC-26196 [2, 3]	progesterone production in cells treated with SC-26196 [2, 3]	steroidogenesis in adrenocortical cells ([2]; ARA supplementation (150 µM))
CC/C=C\C/C=C\C/C=C\C/C=C\C/C=C\CCCC(=O)OCC [icosapent ethyl, eicosapentaenoic acid ethyl ester]	162	266	–	–	–	–
CCCCC/C=C\C/C=C\C/C=C\C/C=C\CCCC(=O)O [ARA, all-cis-5,8,11,14-eicosatetraenoic acid]	–	–	partially restored	partially restored	partially restored	increased steroidogenesis
